Columns and labels:
[1] = target: T1, human prostanoid EP1 receptor (Homo sapiens, UniProt P34995); test: FLIPR Ca2+ signaling PG antagonist assay, EP1 stable cell line; type: cell-based; details: HEK-293 EBNA cells, human recombinant EP1, no exogenous G-protein; standard agonist PGE2
T1 construct: expressed in transfected cells
T1 sequence (P34995 1-402): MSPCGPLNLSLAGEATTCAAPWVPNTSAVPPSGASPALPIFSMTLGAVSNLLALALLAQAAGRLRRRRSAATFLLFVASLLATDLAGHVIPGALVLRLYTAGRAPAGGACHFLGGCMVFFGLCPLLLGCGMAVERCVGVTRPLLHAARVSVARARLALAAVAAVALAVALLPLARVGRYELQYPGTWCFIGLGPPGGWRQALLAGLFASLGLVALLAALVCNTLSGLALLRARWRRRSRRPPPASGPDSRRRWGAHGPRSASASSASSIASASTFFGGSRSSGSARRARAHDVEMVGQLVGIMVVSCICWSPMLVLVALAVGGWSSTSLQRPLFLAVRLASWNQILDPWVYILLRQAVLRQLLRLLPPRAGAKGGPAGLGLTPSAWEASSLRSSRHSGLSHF
Method: (§1) The above compounds were tested for PG antagonist activity as follows using human recombinant prostanoid receptor (DP1, EP1-4, FP, IP and TP) stable cell lines: In order to measure the response of Gs and Gi coupled prostanoid receptors as a Ca^2+ signal, chimeric G protein cDNAs were used. Stable cell lines over-expressing human prostanoid DP1, EP1-4, FP, IP, and TP receptors were established as follows:
(§2) Briefly, human prostanoid DP1, EP2, and EP4 receptor cDNAs were co-transfected with chimeric Gqs cDNA containing a haemagglutanin (HA) epitope; human prostanoid EP3 receptors were co-transfected with chimeric Gqi-HA; human EP1, FP, IP, and TP receptor cDNAs were expressed with no exogenous G-proteins. Gqs and Gqi chimeric cDNAs (Molecular Devices, Sunnyvale, Calif., U.S.A.), as well as cDNAs of prostanoid receptors, were cloned into a pCEP4 vector with a hygromycin B selection marker. Transfection into HEK-293 EBNA (Epstein-Barr virus nuclear antigen) cells was achieved by the FuGENE 6 transfection Reagent (Roche Applied Science, Indianapolis, Ind., USA). Stable transfectants were selected according to hygromycin resistance. Because Gqs and Gqi contained an HA epitope, G-protein expression was detected by Western blotting analysis using anti-mouse HA monoclonal antibody and horseradish peroxidase (HRP)-conjugated secondary antibody, while functional expression of prostanoid receptors was detected by FLIPR screening (Matias et al., 2004). These stable cell lines were validated using previously published antagonists at 10 μM against serial dilutions of standard agonists by FLIPR functional assays for Ca^2+ Signaling (as described below).
(§3) Ca^2+ signaling studies were performed using a FLIPR TETRA system (Molecular Devices, Sunnyvale, Calif., USA) in the 384-format. This is a high-throughput instrument for cell-based assays to monitor Ca^2+ signaling associated with GPCRs and ion channels. Cells were seeded at a density of 5×10^4 cells/well in BioCoat poly-D-lysine coated, black wall, clear bottom 384-well plates (BD Biosciences, Franklin lakes, NJ, USA) and allowed to attach overnight in an incubator at 37° C. The cells were then washed twice with HBSS-HEPES buffer (Hanks' balanced salt solution without bicarbonate and phenol red, 20 mM HEPES, pH 7.4) using an ELx405 Select CW Microplate Washer (BioTek, Winooski, Vt., USA). After 60 min of dye-loading in the dark using the Ca^2+-sensitive dye Fluo-4AM (Invitrogen, Carlsbad, Calif., USA), at a final concentration of 2×10^−6M, the plates were washed 4 times with HBSS-HEPES buffer to remove excess dye and leaving 50 μl of buffer in each well. The plates were then placed in the FLIPR TETRA instrument and allowed to equilibrate at 37° C. Compounds were added in a 25 μl volume to each well to give final concentrations of 0.1 μM, 0.3 μM, 1 μM, 3 μM, 10 μM, and 30 μM; or 0.067 μM, 0.1 μM, 0.2 μM, 0.3 μM, 0.67 μM, and 1 μM for cells over-expressing TP receptors. After 4.5 minutes, a 7-point serial dilution of the standard agonist for the corresponding receptor, in a 25 μl volume was injected at the final concentrations from 10^−11M to 10^−5M in 10-fold serial dilution increments for cells expressing human recombinant DP1, EP1, EP2, EP3, EP4, FP, and IP receptors. The dose range for the standard agonist for human recombinant TP receptors was from 10^−12M to 10^−6M. HBSS-HEPES buffer was used as the negative control for the standard agonists. Cells were excited with LED (light emitting diode) excitation at 470-495 nm and emission was measured through an emission filter at 515-575 nm. Assay plates were read for 3.5 minutes using the FLIPR^TETRA. The peak increase in fluorescence intensity was recorded for each well. On each plate, negative controls, dose response of positive controls, and co-treatments of antagonist-agonist for each dose were in triplicates. Standard agonists were as follows: DP=BW 245C, EP1-EP4=PGE2, FP=17-phenyl-PGF2α, IP=Cicaprost, and TP=U-46619. […]

[2] = target: T2, human prostanoid DP1 receptor (Homo sapiens, UniProt Q13258); test: FLIPR Ca2+ signaling PG antagonist assay, DP1 stable cell line; type: cell-based; details: HEK-293 EBNA cells, human recombinant DP1 with chimeric Gqs; standard agonist BW 245C; read-out: DP (Kb, PG antagonist activity)
T2 construct: expressed in transfected cells
T2 sequence (Q13258 1-359): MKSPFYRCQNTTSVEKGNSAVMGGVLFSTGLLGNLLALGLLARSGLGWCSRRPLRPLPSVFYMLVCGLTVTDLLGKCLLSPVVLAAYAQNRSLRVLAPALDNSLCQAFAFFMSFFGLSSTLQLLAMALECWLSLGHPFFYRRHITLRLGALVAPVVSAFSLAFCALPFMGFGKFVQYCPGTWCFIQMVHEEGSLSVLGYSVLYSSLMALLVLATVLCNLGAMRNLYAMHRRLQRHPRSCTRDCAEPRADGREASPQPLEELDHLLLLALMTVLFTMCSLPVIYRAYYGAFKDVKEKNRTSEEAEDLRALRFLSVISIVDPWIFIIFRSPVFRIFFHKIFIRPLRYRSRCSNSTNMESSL
Method: as §1, §2, §3

Row | Compound | Kb [1] [nM] | Kb [2] [nM]
1 | O=C(O)c1ccc2c(cnn2Cc2cc(Cl)ccc2OCc2ccc(Cl)cc2)c1 [Example 9, 1-[5-Chloro-2-(4-Chloro-Benzyloxy)-Benzyl]-1H-Indazole-5-Carboxylic Acid] | 90 | 1200
2 | CC(C)COc1ccc(OC(F)(F)F)cc1Cn1ncc2cc(C(=O)O)ccc21 [Example 20, 1-(2-Isobutoxy-5-Trifluoromethoxy-Benzyl)-1H-Indazole-5-Carboxylic Acid] | 30 | 500
3 | CCC(CC)COc1ccc(Cl)cc1Cn1ncc2cc(C(=O)O)ccc21 [Example 2, 1-[5-Chloro-2-(2-Ethyl-Butoxy)-Benzyl]-1H-Indazole-5-Carboxylic ACID] | 140 | 1300
4 | CCC(CC)COc1ccc(C(F)(F)F)cc1Cn1nc(C)c2cc(C(=O)O)ccc21 [Example 26, 1-[2-(2-Ethyl-Butoxy)-5-Trifluoromethyl-Benzyl]-3-Methyl-1H-Indazole-5-Carboxylic Acid] | 80 | 1700
5 | CCc1nn(Cc2cc(Br)ccc2OCC(C)C)c2ccc(C(=O)O)cc12 [Example 64, 1-(5-Bromo-2-Isobutoxy-Benzyl)-3-Ethyl-1H-Indazole-5-Carboxylic Acid] | 5 | 260
6 | CC(C)COc1ccc(OC(F)(F)F)cc1Cn1ncc2cc(C(=O)O)cnc21 [Example 58, 1-(2-Isobutoxy-5-Trifluoromethoxy-Benzyl)-1H-Pyrazolo[3,4-B]Pyridine-5-Carboxylic Acid] | 30 | 1800
7 | CCc1nn(Cc2cc(Br)ccc2OCC(CC)CC)c2ccc(C(=O)O)cc12 [Example 65, 1-[5-Bromo-2-(2-Ethyl-Butoxy)-Benzyl]-3-Ethyl-1H-Indazole-5-Carboxylic Acid] | 40 | 1500
8 | Cc1nn(Cc2cc(OC(F)(F)F)ccc2OCC(C)C)c2ccc(C(=O)O)cc12 [Example 22, 1-(2-Isobutoxy-5-Trifluoromethoxy-Benzyl)-3-Methyl-1H-Indazole-5-Carboxylic Acid] | 16 | 1700
9 | CC(C)COc1ccc(Br)cc1Cn1ccc2nc(C(=O)O)ccc21 [Example 73, 1-(5-Bromo-2-Isobutoxy-Benzyl)-1H-Pyrrolo[3,2-B]Pyridine-5-Carboxylic Acid] | 80 | ≥ 10000
10 | CCC(CC)COc1ccc(OC(F)(F)F)cc1Cn1cc(C)c2cc(C(=O)O)ccc21 [Example 77, 1-[2-(2-Ethyl-Butoxy)-5-Trifluoromethoxy-Benzyl]-3-Methyl-1H-Indole-5-Carboxylic Acid] | 900 | 3600
11 | CCC(CC)COc1ccc(Cl)cc1Cn1ccc2cc(C(=O)O)ccc21 [Example 1, 1-[5-Chloro-2-(2-Ethyl-Butoxy)-Benzyl]-1H-Indole-5-Carboxylic Acid] | 180 | 2100
12 | CCC(CC)COc1ccc(Cl)cc1Cn1nc(C)c2cc(C(=O)O)ccc21 [Example 23, 1-[5-Chloro-2-(2-Ethyl-Butoxy)-Benzyl]-3-Methyl-1H-Indazole-5-Carboxylic Acid] | 30 | 900
13 | CCC(CC)COc1ccc(Cl)cc1Cn1cc2c(C(=O)O)cccc2n1 [Example 39, 2-[5-Chloro-2-(2-Ethyl-Butoxy)-Benzyl]-2H-Indazole-4-Carboxylic Acid] | 1200 | 1000
14 | Cc1nn(Cc2cc(Br)ccc2OCC2(C)CC2)c2ccc(C(=O)O)cc12 [Example 28, 1-[5-Bromo-2-(1-Methyl-Cyclopropylmethoxy)-Benzyl]-3-Methyl-1H-Indazole-5-Carboxylic Acid] | 43 | 730
15 | CCC(CC)COc1ccc(Cl)cc1Cn1nc(C)c2cc(C(=O)O)cnc21 [Example 60, 1-[5-Chloro-2-(2-Ethyl-Butoxy)-Benzyl]-3-Methyl-1H-Pyrazolo[3,4-B]Pyridine-5-Carboxylic Acid] | 410 | 580
16 | CCC(CC)COc1ccc(Br)cc1Cn1ccc2ccc(C(=O)O)cc21 [Example 70, 1-[5-Bromo-2-(2-Ethyl-Butoxy)-Benzyl]-1H-Indole-6-Carboxylic Acid] | 200 | 2200
17 | O=C(O)c1cccc2c1cnn2Cc1cc(Cl)ccc1OCc1ccc(Cl)cc1 [Example 40, 1-[5-Chloro-2-(4-Chloro-Benzyloxy)-Benzyl]-1H-Indazole-4-Carboxylic Acid] | 60 | 1000
18 | CC(C)COc1ccc(Br)cc1Cn1ccc2cc(C(=O)O)cnc21 [Example 72, 1-(5-Bromo-2-Isobutoxy-Benzyl)-1H-Pyrrolo[2,3-B]Pyridine-5-Carboxylic Acid] | 10 | 1500
19 | CC(C)COc1ccc(Br)cc1Cn1cc2cc(C(=O)O)ccc2n1 [Example 17, 2-(5-Bromo-2-Isobutoxy-Benzyl)-2H-Indazole-5-Carboxylic Acid] | 40 | 3500
20 | CCC(CC)COc1ccc(Cl)cc1Cn1ncc2cc(C(=O)O)ncc21 [Example 63, 1-[5-Chloro-2-(2-Ethyl-Butoxy)-Benzyl]-1H-Pyrazolo[3,4-C]Pyridine-5-Carboxylic Acid] | 1200 | ≥ 10000
21 | O=C(O)c1ccc2c(cnn2Cc2cc(C(F)(F)F)ccc2OCc2ccc(Cl)cc2)c1 [Example 32, 1-[2-(4-Chloro-Benzyloxy)-5-Trifluoromethyl-Benzyl]-1H-Indazole-5-Carboxylic Acid] | 210 | 1700
22 | O=C(O)c1ccc2c(cnn2Cc2cc(Cl)ccc2OCc2ccccc2)c1 [Example 8, 1-(2-Benzyloxy-5-Chloro-Benzyl)-1H-Indazole-5-Carboxylic Acid] | 220 | 2600
23 | O=C(O)c1cccc2nn(Cc3cc(Cl)ccc3OCc3ccc(Cl)cc3)cc12 [Example 41, 2-[5-Chloro-2-(4-Chloro-Benzyloxy)-Benzyl]-2H-Indazole-4-Carboxylic Acid] | ≥ 10000 | 4700
24 | O=C(O)c1cccc2c1cnn2Cc1cc(Cl)ccc1OCC1CC1 [Example 34, 1-(5-Chloro-2-Cyclopropylmethoxy-Benzyl)-1H-Indazole-4-Carboxylic Acid] | 70 | 5400
